{
  "source": "patent US20250090510A1",
  "about": "“eIF4G1-eIF1 INHIBITORS AND USE THEREOF” (YEDA RESEARCH AND DEVELOPMENT CO. LTD., priority 2022, published 2025)",
  "key": {"HEK293T cells": {"tested_on": "HEK293T cells", "test": "Ribo-seq and TI-seq translation efficiency analysis", "assay_type": "cell-based, human", "settings": "i14G1-10 20 μM, i14G1-12 10 μM; 3 h", "experimental": "FIGS. 4A-L: The effect eIF1-eIF4G1 inhibition by i14G1-10 or i14G1-12 on global translation is linked to start codon stringency. (4A) HEK293T cells were treated with DMSO, i14G1-10 (20 μM), and […] (10 μM) for 3 h and then ribosome foot printing libraries were prepared, sequenced and analyzed as described in the scheme. The presented graphs show meta-gene analysis of the distribution of normalized reads in the coding region (CDS) and 5′UTR of all analyzed genes in DMSO (black), i14G1-10 (blue), and i14G1-12 (red). (4B) Summary of the number of genes whose ribosomal occupancy was affected (fold change, […]) or unaffected in coding regions (CDS) (left) and 5′UTR (right) in i14G1-10 or i14G1-12 samples. […] (4E) Analysis of the nucleotide context of the annotated start codon of i14G1-10 and i14G1-12 differentially translated mRNAs using the STREME motif discovery algorithm. (4F) The translation efficiency of eIF1 in DMSO, i14G1-10 and i14G1-12 samples calculated from the Ribo-seq data. The weak AUG context of eIF1 is shown above. […] (4I) HEK293T cells were transfected with a firefly luciferase reporter gene driven by either by AUG or near cognate start codon, i.e., ACG, CUG, GUG, and UUG. The Renilla luciferase reporter gene was also co-transfected and served as a normalizing control. The near cognate start codon activities in DMSO control and i14G1-10 and i14G1-12 treated cells are presented as a percentage of AUG activity. The data are shown as mean±SEM, n=5. the asterisks denote statistically significant difference compared to DMSO, according to Student's t-tests (one-tailed, paired). *p<0.05; **p<0.01. (4J) Scatter plots showing the translation efficiencies correlations (R2 >0.9) of all analyzed genes between the two independent replicate experiments with DMSO (vehicle control) (top), i14G1-10 (middle), and i14G1-12 (bottom). (4K) Scatter plots showing the translation efficiencies correlations between 5′UTR and CDS (Pearson's r >0.5) of all analyzed genes of two independent replicate experiments with i14G1-10 (left) and i14G1-12 (right).\nRibo-seq and TI-seq. HEK293T cells were grown in 10 cm culture dish until 80% confluence, and treated with DMSO, i14G1-10 ([…]), and i14G1-12 (10 μM). After 3 h, for TI-seq, cells were treated with 2 μg/ml harringtonine (Hrr) for 2 minutes followed by the addition of 100 μg/ml cycloheximide (CHX) for 5 minutes. For Ribo-seq cells were treated with 100 μg/ml cycloheximide (CHX) for 5 minutes. Thereafter, cells were lysed in polysome buffer. For both TI-seq and Ribo-seq, ribosome fractions were isolated using sucrose density centrifugation followed by Rnase I digestion. The total RNA was isolated using tri-reagent and used for high-throughput library preparation as described (Ingolia et al. 2012). The libraries were sequenced on the HiSeq2500 High-Output instrument (Illumina) for SR-60.\nRNA-seq libraries. Total RNA was isolated from the lysates used for TI-seq and Ribo-seq, using Bio Tri RNA reagent. Total RNA was then cleaned up using Oligo d(T)25 Magnetic Beads (NEB 514195) to isolate mRNA. RNA-seq libraries prepared using a derivation of MARS-seq, produce expression libraries with two replicates of each treatment. ˜25 ng RNA was taken for first Reverse transcription reaction using Illumina barcoded RT1 primer. Resultant barcoded cDNA samples were subsequently pooled according to Ct values of Housekeeping gene (GAPDH) (Quality control 1). Pooled cDNA was treated with Exonuclease I to remove excess primers followed by Second strand synthesis using NEB SSS module enzyme mix. After that, in vitro transcription was performed using NEB T7 RNA Pol mix to generate RNA which was fragmented and ligated to an adaptor consisting RD2 using T4 RNA ligase I (NEB) followed by a second Reverse transcription reaction. The library was amplified using Kappa Hifi ready mix. The RNA libraries were sequenced using a high-throughput 75 bp kit (Illumina FC404-2005) on NEXTseq 500 sequencer. […]"}, "[1]": {"tested_on": "P. falciparum translation", "test": "Puromycin incorporation western blot in P. falciparum blood cultures", "assay_type": "cell-based, Plasmodium falciparum", "settings": "i14G1-10 20 uM, i14G1-12 10 uM; 1 hour, puromycin 5 minutes", "experimental": "FIGS. 8A-B: (8A) Bar graph of percent parasitemia in blood samples treated with i14G1-10 (20 μM) and i14G1-12 (10 μM) for 1 hour. DMSO treatment was used as a negative control. *=pVal; <0.05, ***=pVal<0.001 (8B) Photograph of a western blot and corresponding gel total protein staining of P. falciparum blood cultures treated with the inhibitors with or without the addition of puromycin. DMSO treatment and untreated cultures were used as a negative control.\nNext, the method of action that caused the growth/survival inhibition was tested. […] Puromycin labels newly synthesized proteins and cell lysates were analysed by western blot with anti-puromycin antibody (FIG. 8B)."}},
  "data": [
    {"smiles": "O=C(/C=C/Sc1ccc(C(F)(F)F)cn1)c1ccccc1", "note": "[i14G1-10]", "values": [
      {"measurement": "ATF4 main ORF translation", "setting": "HEK293T cells", "result": "upregulated"},
      {"measurement": "number of genes with translational downregulation of CDS (≥1.7 fold)", "setting": "HEK293T cells", "result": 320, "unit": "genes"},
      {"measurement": "number of genes with translational upregulation of CDS", "setting": "HEK293T cells", "result": 255, "unit": "genes"},
      {"measurement": "number of genes with upregulated 5′UTR translation", "setting": "HEK293T cells", "result": 806, "unit": "genes"},
      {"measurement": "translation efficiency of endogenous eIF1", "setting": "HEK293T cells", "result": "upregulated"},
      {"measurement": "protein synthesis (puromycin incorporation)", "setting": "[1]", "result": "inhibited protein synthesis"}
    ]},
    {"smiles": "Cn1ccnc1S/C(=C/C=C(C#N)C#N)c1ccc(Cl)cc1", "note": "[i14G1-12]", "values": [
      {"measurement": "ATF4 main ORF translation", "setting": "HEK293T cells", "result": "upregulated"},
      {"measurement": "number of genes with translational downregulation of CDS (≥1.7 fold)", "setting": "HEK293T cells", "result": 874, "unit": "genes"},
      {"measurement": "number of genes with translational upregulation of CDS", "setting": "HEK293T cells", "result": 547, "unit": "genes"},
      {"measurement": "number of genes with upregulated 5′UTR translation", "setting": "HEK293T cells", "result": 1207, "unit": "genes"},
      {"measurement": "translation efficiency of endogenous eIF1", "setting": "HEK293T cells", "result": "upregulated"},
      {"measurement": "protein synthesis (puromycin incorporation)", "setting": "[1]", "result": "inhibited protein synthesis"}
    ]}
  ]
}
